Laboratory results taken from US8884027B2, “Melampomagnolide B derivatives as antileukemic and cytotoxic agents” (University of Rochester, priority 2010, dated 2014).
“Also recorded” adds a separate entry of the source.

What was measured:
[1] = test system: NF-κB p65 subunit at Ser-536; assay: Inhibition of NF-κB activity: immunoblot of phosphorylated p65 in primary leukemia cells; assay type: cell-based, human; conditions: primary leukemia cells treated six hours, FIG. 3A
Method: (§1) Primary leukemia cells were treated with varying concentrations of 1, 3 or 4 for six hours, followed by lysis and analysis by immunoblot. Inhibition of NF-κB activity was assessed by measuring phosphorylation of the NF-κB p65 subunit at Ser-536. […] To further evaluate the cytoxicity of 3 and 4, cell viability was measured following 24 h exposure to each compound. […] To achieve a similar degree of cell death with 4, treatment at 20-30 μM was required, in good agreement with the NF-κB phosphorylation analysis shown in FIG. 3A. Thus, while 3 and 4 retain the biological properties of 1, the activity of 4 is reduced approximately 2-fold. The minor loss in activity might be attributed to steric hindrance resulting from the addition of the bulky biotin moiety.
Cell lysates or pull-down products were diluted in 5×SDS-PAGE sample buffer (10% w/v SDS, 10 mM DDT, 20% glycerol, 0.2M Tris-HCl, pH 6.8, 0.05% w/v bromophenol blue), and run on 8-10% SDSPAGE gels. Protein gels were then transferred to PVDF membrane and blocked with 5% milk in 0.1% TBST (20 mM Tris-HCl pH 7.5, 137 mM NaCl, 0.1% Tween 20), followed by incubation with antibodies against p-p65(ser 536) (Cell Signaling), IKK-β (Cell Signaling), p65 (Santa Cruz), β-actin (Sigma), or SA-HRP probe (Thermo).

primary leukemia cells = assay: Cell viability assay (Annexin V/7-AAD flow cytometry); assay type: cell-based, human; conditions: for concentration achieving efficient induction of cell death: 24 h exposure, FIG. 3B; for anti-leukemia activity compared to PTL (in words): primary AML specimens, FIG. 2
Method: as §1
Cells treated with different concentrations of 1, 3 or 4 were washed with cold PBS and resuspended in 200 μL of Annexin binding buffer (10 mM HEPES/NaOH pH 7.4; 140 mM NaCl; 2.5 mM CaCl2). Annexin-V and 7-amino-actinomycin (7-AAD) were added and the tubes were incubated at ambient temperature in the dark for 15 mins. Cells were then diluted with 200 μL of Annexin binding buffer and analyzed immediately by flow cytometry. Viable cells were scored as Annexin V negative/7-AAD negative. Percent viability data provided are normalized to untreated control specimens.

Water solubility = assay type: physicochemical
Method: Detailed SAR studies of PTL were performed to better understand the basic chemistry required to mediate anti-leukemia activity. […] In biological systems, the consequences of this reactivity are most prevalent for free thiols and cysteine residues. […] A series of PTL analogs was previously prepared with the goal of creating a more therapeutically useful derivative (Neelakantan et al., 2009). […] In addition, DMAPT retains virtually identical anti-leukemia properties as PTL, including the ability to selectively target LSCs. […] Based on these findings, DMAPT has advanced to phase 1 clinical trials, and is currently being evaluated in patients with advanced hematologic malignancies. DMAPT and certain PTL analogs are disclosed in U.S. Pat. Nos. 7,312,242 and 7,678,904, each of which is incorporated herein by reference.
The predicted poor oral bioavailability likely results from low aqueous solubility, since this causes a low dissolution-rate, which is often the rate-limit step during oral drug absorption. Fleisher et al., Improved oral drug delivery: solubility limitations overcome by the use of prodrugs. Adv Drug Deliv Rev, 19:115-130, 1996; Taylor, Improved passive oral drug delivery via prodrugs. Adv Drug Deliv Rev, 19:131-148, 1996. Furthermore, low water solubility can itself be a source of toxicity, due to precipitation of the drug, causing crystalluria. […]

[2] = cited from earlier work
[3] = cited from earlier work; remark: listed apart in the source
[4] = rats and dogs, cited from earlier work
IKK-β = molecular target: T1, IKK-β (Homo sapiens, UniProt O14920); assay: Streptavidin beads pull-down assay with immunoblot; assay type: binding
T1 construct: endogenous in cells; host or cells: primary leukemia (AML) cells
T1 sequence (O14920 1-756): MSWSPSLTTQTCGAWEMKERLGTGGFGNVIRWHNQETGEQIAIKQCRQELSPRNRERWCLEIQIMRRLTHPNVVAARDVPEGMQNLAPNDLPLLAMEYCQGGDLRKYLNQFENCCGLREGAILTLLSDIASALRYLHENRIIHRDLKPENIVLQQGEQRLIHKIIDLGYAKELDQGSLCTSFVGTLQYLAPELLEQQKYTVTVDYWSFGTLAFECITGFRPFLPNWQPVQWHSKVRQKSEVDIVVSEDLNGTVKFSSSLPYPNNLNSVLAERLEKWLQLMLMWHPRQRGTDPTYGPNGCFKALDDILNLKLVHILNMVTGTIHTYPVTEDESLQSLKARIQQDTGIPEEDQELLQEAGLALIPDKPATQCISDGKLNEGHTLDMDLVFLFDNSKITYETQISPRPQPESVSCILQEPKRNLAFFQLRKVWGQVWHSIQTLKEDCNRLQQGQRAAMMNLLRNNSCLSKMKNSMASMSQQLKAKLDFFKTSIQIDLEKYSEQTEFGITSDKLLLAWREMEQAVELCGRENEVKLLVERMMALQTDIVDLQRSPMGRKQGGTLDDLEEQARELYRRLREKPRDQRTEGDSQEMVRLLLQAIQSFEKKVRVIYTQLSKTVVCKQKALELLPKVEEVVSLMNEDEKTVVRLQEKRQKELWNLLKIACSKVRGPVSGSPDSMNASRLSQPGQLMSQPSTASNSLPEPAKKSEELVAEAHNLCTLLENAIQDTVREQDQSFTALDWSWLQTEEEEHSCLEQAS
Method: Subsequent studies employed 4 as a reagent to identify potential leukemic proteins modified by MMB. Primary human cells were treated with 20 uM 4 for 6 h, followed by lysis and immunoblot analysis using a streptavidin probe. […] Thus, while the chemistry of 4 should be essentially the same in any cell type, there must be intrinsic differences between normal and leukemic cells that lead to the interaction with unique targets. We propose that this differential binding contributes to the leukemia-specific cell death previously described for 1. To further validate the utility of 4 for analysis of protein targets, we performed biochemical pulldown studies. […] Kwok et al. Chem. Bio., 2001, 8, 759. Therefore, we tested whether 4 would also bind this protein. In FIG. 5, primary leukemia cells were pretreated for 2 h with 1 (lanes 2, 5) or biotin control (b.c.) (lanes 3, 6), prior to a 4 h incubation with 4. Cells were then lysed and immuno-precipitated by streptavidin beads. Pulldown products were analyzed by immunoblot to identify specific proteins. […] Kwok et al., Chem. Bio., 2001, 8, 759; Hehner et al., J. Immunol. 1999, 163, 5617.
Treated cells were washed three times in cold PBS and lysed in Buffer F (10 mM Tris-HCl pH 7.5, 50 mM NaCl, 30 mM Sodium pyrophosphate, 50 mM NaF, 5 μM ZnCl2, 1% Triton X-100) with freshly added proteinase inhibitors (1 mM PMSF, 1×PIC, 0.1 mM Na3OV4). […]

NF-kB p65 subunit = molecular target: T2, NF-kB p65 subunit (Homo sapiens, UniProt Q04206); assay: Streptavidin beads pull-down assay with immunoblot; assay type: binding; conditions: 2 h pretreatment before 4; FIG. 5 lane 5
T2 construct: endogenous in cells; host or cells: primary leukemia (AML) cells
T2 sequence (Q04206 whole entry): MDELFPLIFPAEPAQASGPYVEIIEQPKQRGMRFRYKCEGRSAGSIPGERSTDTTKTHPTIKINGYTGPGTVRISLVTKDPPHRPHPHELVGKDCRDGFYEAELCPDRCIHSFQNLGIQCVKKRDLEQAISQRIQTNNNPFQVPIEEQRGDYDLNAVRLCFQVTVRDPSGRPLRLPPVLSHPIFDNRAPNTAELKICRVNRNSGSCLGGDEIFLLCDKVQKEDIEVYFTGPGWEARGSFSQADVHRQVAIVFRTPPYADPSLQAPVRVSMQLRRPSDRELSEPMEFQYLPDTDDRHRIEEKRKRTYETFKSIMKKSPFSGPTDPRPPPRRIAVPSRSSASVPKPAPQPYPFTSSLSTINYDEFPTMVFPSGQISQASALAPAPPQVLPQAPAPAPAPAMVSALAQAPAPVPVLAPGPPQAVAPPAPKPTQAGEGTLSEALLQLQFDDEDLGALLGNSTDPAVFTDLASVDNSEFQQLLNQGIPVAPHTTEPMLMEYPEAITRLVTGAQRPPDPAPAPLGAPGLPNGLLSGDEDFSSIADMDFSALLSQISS
Method: Primary human cells were treated with 20 uM 4 for 6 h, followed by lysis and immunoblot analysis using a streptavidin probe. […] Therefore, we tested whether 4 would also bind this protein. […] Cells were then lysed and immuno-precipitated by streptavidin beads. Pulldown products were analyzed by immunoblot to identify specific proteins.
Treated cells were washed three times in cold PBS and lysed in Buffer F (10 mM Tris-HCl pH 7.5, 50 mM NaCl, 30 mM Sodium pyrophosphate, 50 mM NaF, 5 μM ZnCl2, 1% Triton X-100) with freshly added proteinase inhibitors (1 mM PMSF, 1×PIC, 0.1 mM Na3OV4). Lysates were cleared by 10 mins of 12,000 rpm spinning at 4° C. and the supernatant was incubated with SA beads for 2 hours on an end-to-end rotor at 4° C. Beads were then washed sequentially with 1×PBS, high salt wash buffer (500 mM NaCl in 0.1 M pH 5.0 NaOAc), low pH wash buffer (0.1 M pH 2.8 glycine-HCl), and one last time in 1×PBS. After the wash steps, the SA beads were boiled for 10 mins in 2×SDS-PAGE sample buffer to elute down all pull-down products.
Cell lysates or pull-down products were diluted in 5×SDS-PAGE sample buffer (10% w/v SDS, 10 mM DDT, 20% glycerol, 0.2M Tris-HCl, pH 6.8, 0.05% w/v bromophenol blue), and run on 8-10% SDSPAGE gels. […]

glutathione = assay: Metabolomic studies of glutathione; assay type: cell-based
Description: For example, both thioredoxin and glutathione-S-transferase are targets of MMB. […] Furthermore, MMB also directly binds the major components of the HSP family (HSP60, 70, and 90). […] If true, then MMB could also impair the function of one or more HSPs. Taken together with the genomic data, these findings indicate a unique mechanism of action, where agents of this class act by inducing multiple stress response mechanisms and simultaneously impairing those very same mechanisms from functioning properly.

C=C1C(=O)O[C@@H]2[C@H]3O[C@]3(C)CC/C=C(\CO)CC[C@@H]12 [MMB, Melampomagnolide B]
concentration at which a significant loss of phosphorylation of NF-κB p65 is observed [1]: 7.5 µM | concentration achieving efficient induction of cell death (primary leukemia cells): 7.5 µM | anti-leukemia activity compared to PTL (in words) (primary leukemia cells): indistinguishable from PTL; also recorded: identical anti-leukemia activity compared to PTL | anti-leukemia activity compared to PTL (in words) (primary leukemia cells; listed as 3): potency and selectivity similar to 1 | solubility in aqueous media (in words) (Water solubility): sparingly soluble

C/C1=C\CC[C@@]2(C)O[C@@H]2[C@H]2OC(=O)[C@H](CN(C)C)[C@@H]2CC1 [DMAPT, dimethylaminoparthenolide]
water solubility relative to PTL ([2]; formulated as a fumarate salt): ~1000 fold | in vivo half-life [3]: approximately two | oral bioavailability [4]: 70% | tolerability ([4]; doses resulting in serum concentrations of up to 10-fold excess of the biologically active concentration): well tolerated

C=C1C(=O)O[C@H]2[C@H]1CC/C(C)=C/CC[C@@]1(C)O[C@@H]21 [PTL, parthenolide]
effect of preincubation on binding of IKK-β to 4 (IKK-β; 2 h pretreatment before 4, FIG. 5 lane 5): potently reduced binding | effect of preincubation on binding of p65 to 4 (NF-kB p65 subunit): potently reduced binding | reduction of glutathione (glutathione): 11.2 fold | water solubility (in words) [2]: relatively water-insoluble

C=C1C(=O)O[C@@H]2[C@H]3O[C@]3(C)CC/C=C(\COC(=O)CCCCCCCCCCCNC(=O)CCCC[C@@H]3SC[C@@H]4NC(=O)N[C@@H]43)CC[C@@H]12 [Prodrug 4, 14-[N-(Biotinyl)-12-aminododecanoxy]melampomagnolide B]
concentration at which a significant loss of phosphorylation of NF-κB p65 is observed [1]: 20 µM | concentration achieving efficient induction of cell death (primary leukemia cells): 20 to 30 µM | reduction of activity relative to 1 (primary leukemia cells; from viability and NF-κB phosphorylation analysis): approximately 2 fold | binding of IKK-β in pull-down (IKK-β; primary leukemia cells, 4 h incubation with 4, FIG. 5): one product identified was IKK-β
